The text below walks through data of patent EP4631938A1, “NITROGEN-CONTAINING HETEROCYCLE WITH SEROTONIN RECEPTOR-BINDING ACTIVITY AND CARBOCYCLIC DERIVATIVE” (Shionogi & Co., Ltd, priority 2022, dated 2024).

Like-named read-outs stand apart in the source and are kept apart here.

Assay [1] has as its target T1, human recombinant 5-HT2A receptor (Homo sapiens, UniProt P28223).
T1 construct: expressed in transfected cells; host or cells: Jump-In HEK cells (membrane preparation)
Nature of the assay: Test Example 1-2: 5-HT2A receptor binding inhibition test ([3H]-Ketanserin; non-specific ligand Ketanserin). A digest of the protocol:
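Ki values were derived from dose-response inhibition of [3H]-ketanserin binding; nonspecific binding was set with 500 µmol/L ketanserin, and Kd was set for each membrane lot from Scatchard saturation plots. Incubation lasted 1.5 h at room temperature (25 °C). Bound radioligand was harvested on Tris-HCl (pH 7.4)-presoaked filters and counted.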

The target in assay [2] is T2, human recombinant 5-HT2C receptor (Homo sapiens, UniProt P28335).
T2 construct: expressed in transfected cells; host or cells: Jump-In HEK cells (membrane preparation)
T2 sequence (P28335 33-458): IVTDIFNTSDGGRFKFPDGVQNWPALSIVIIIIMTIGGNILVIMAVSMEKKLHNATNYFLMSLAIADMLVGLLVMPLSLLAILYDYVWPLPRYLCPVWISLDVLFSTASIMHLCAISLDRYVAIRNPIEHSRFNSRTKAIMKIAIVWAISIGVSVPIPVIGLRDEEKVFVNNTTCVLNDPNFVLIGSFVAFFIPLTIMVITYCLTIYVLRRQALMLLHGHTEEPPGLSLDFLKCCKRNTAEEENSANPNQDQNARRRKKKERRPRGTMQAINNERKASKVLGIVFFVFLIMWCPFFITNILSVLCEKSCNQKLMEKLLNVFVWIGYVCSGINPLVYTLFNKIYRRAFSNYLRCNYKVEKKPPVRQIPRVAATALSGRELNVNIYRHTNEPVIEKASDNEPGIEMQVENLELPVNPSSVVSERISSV
Briefly: Test Example 2-2: 5-HT2C receptor binding inhibition test ([3H]-Mesulergine; non-specific ligand Ketanserin). The settings on record: non-specific binding with 500 µmol/L Ketanserin, 37°C, 2 hours. The procedure, abridged:
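Membranes expressing the receptor were incubated with compound and [3H]-Mesulergine for 2 h at 37 °C, then filtered and counted by scintillation. Non-specific binding was defined with 500 µmol/L Ketanserin. Percent inhibition versus vehicle gave dose-response curves, from which Ki was derived using a Kd from Scatchard saturation analysis.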

[3] abbreviates: [3H]-Ketanserin, non-specific binding with 500 µmol/L Ketanserin, room temperature (25°C), 1.5 hours, read-out: h 5-HT2A Ki.

T1 sequence (P28223 whole entry): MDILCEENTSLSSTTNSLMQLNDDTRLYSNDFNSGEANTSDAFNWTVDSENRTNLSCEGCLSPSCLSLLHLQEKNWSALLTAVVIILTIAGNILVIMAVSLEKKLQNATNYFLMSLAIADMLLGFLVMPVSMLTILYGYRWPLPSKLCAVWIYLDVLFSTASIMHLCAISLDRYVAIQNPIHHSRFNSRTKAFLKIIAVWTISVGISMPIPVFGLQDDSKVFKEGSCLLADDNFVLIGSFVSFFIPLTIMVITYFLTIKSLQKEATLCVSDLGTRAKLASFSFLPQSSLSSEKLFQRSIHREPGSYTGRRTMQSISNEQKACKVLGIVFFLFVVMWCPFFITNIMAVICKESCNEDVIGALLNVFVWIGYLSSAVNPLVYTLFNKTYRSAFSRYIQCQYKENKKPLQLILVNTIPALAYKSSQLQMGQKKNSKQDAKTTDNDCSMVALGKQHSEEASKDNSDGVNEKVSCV

As usually defined, the Ki is a measure of affinity in units of concentration, obtained from inhibition or displacement. Turning to `Cn1ncc(Br)c1-c1cc(Nc2ccc(C3CC3)cn2)cnc1OCCO` [Compound I-128], the inhibition constant Ki in assay [1] (setting [3]) was determined as 0.258 nM; in assay [2], 0.452 nM.
As for `Cn1ncc(Br)c1-c1cc(Nc2ncc(C3CC3)s2)cnc1OCCO` [Compound I-129], the Ki was determined as 0.237 nM in assay [1] (setting [3]) and 0.959 nM in assay [2].
With `Cn1ncc(Br)c1-c1cc(Nc2ncc(Cl)s2)cnc1OCCO` [Compound I-130], the Ki worked out at 0.256 nM in assay [1] (setting [3]) and 3.26 nM in assay [2].
On to `Cn1ncc(Br)c1-c1cc(Nc2ncc(C(F)(F)F)cn2)cnc1OCCO` [Compound I-131], for which the figures for the Ki in assay [1] (setting [3]) and in assay [2] were 0.163 nM and 1.25 nM, respectively.
Take `Cn1ncc(Br)c1-c1cc(Nc2ncc(Cl)cn2)cnc1OCCO` [Compound I-132]: the Ki in assay [1] (setting [3]) is 0.236 nM; in assay [2], 5 nM.
As to `Cn1ncc(Br)c1-c1cc(Nc2ncc(C3CC3)cn2)cnc1OCCO` [Compound I-133], the results for the Ki in assay [1] (setting [3]) and in assay [2] were 0.322 nM and 2.53 nM, respectively.
With `Cc1ncnc(C)c1-c1cc(Nc2ncc(C(F)(F)F)cc2F)cnc1OCCO` [Compound I-134], the Ki in assay [1] (setting [3]) was determined as 0.621 nM; in assay [2], 13.2 nM.
For `Cc1nc(C)c(-c2cc(Nc3ncc(C(F)(F)F)cc3F)cnc2OCCO)c(C)n1` [Compound I-135], in that order: 1.24 nM and 7.13 nM.
For `Cn1ncc(Cl)c1-c1cc(Nc2ncc(Cl)cc2F)ccc1OCCO` [Compound I-136], the values for the inhibition constant (Ki) in assay [1] (setting [3]) and in assay [2] were 0.167 nM and 0.277 nM, respectively.
The corresponding values for `Cn1ncc(Cl)c1-c1cc(Nc2ncc(F)cc2F)ccc1OCCO` [Compound I-137] are 0.205 nM and 0.772 nM.
`Cn1ncc(Cl)c1-c1cc(Nc2ncc(Cl)cn2)ccc1OCCO` [Compound I-138]: the values for the Ki in assay [1] (setting [3]) and in assay [2] were 0.264 nM and 4.76 nM, respectively.
For `Cn1ncc(F)c1-c1cc(Nc2ncc(Cl)cc2F)cnc1OCCO` [Compound I-139], the inhibition constant Ki in assay [1] (setting [3]) was 0.431 nM; in assay [2], 7.73 nM.
With `Cc1cnn(C)c1-c1cc(Nc2ncc(Cl)cc2F)ccc1OCCO` [Compound I-140], the Ki in assay [1] (setting [3]) worked out at 0.148 nM; in assay [2] it was 1.06 nM.
In the case of `Cc1cnn(C)c1-c1cc(Nc2ncc(Cl)cc2F)cnc1OCCO` [Compound I-141], the values for the Ki in assay [1] (setting [3]) and in assay [2] were 0.296 nM and 4.07 nM, respectively.
Consider `Cn1ncc(Cl)c1-c1cc(Nc2ncc(C(F)(F)F)cc2F)cnc1OCCO` [Compound I-142], for which the Ki in assay [1] (setting [3]) amounted to 0.269 nM; in assay [2], 0.195 nM.
As to `Cn1ncc(Cl)c1-c1cc(Nc2ncc(Cl)cc2F)cnc1OCCO` [Compound I-143], the figures for the Ki in assay [1] (setting [3]) and in assay [2] were 0.259 nM and 0.274 nM, respectively.
The corresponding values for `Cc1cnn(C)c1-c1cc(Nc2ncc(C(F)(F)F)cc2F)c(F)cc1OCCO` [Compound I-144] are 0.341 nM and 2.49 nM.
`Cn1ncc(F)c1-c1cc(Nc2ncc(C(F)(F)F)cc2F)c(F)cc1OCCO` [Compound I-145]: the Ki in assay [1] (setting [3]) is 0.202 nM; in assay [2], 4.76 nM.
In the case of `Cc1noc(C)c1-c1cc(Nc2ncc(C(F)(F)F)cc2F)c(F)cc1OCCO` [Compound I-147], the Ki in assay [1] (setting [3]) is 0.259 nM; in assay [2], 4.75 nM.
For `Cn1ncc(Br)c1-c1cc(Nc2ncc(C(F)(F)F)cn2)c(F)cc1OCCO` [Compound I-148], the results for the Ki in assay [1] (setting [3]) and in assay [2] were 0.506 nM and 0.906 nM, respectively.
As for `Cn1ncc(Br)c1-c1cc(Nc2ncc(Cl)cn2)c(F)cc1OCCO` [Compound I-149], the Ki in assay [1] (setting [3]) is 0.365 nM; in assay [2], 1.35 nM.
As for `Cn1ncc(Br)c1-c1cc(Nc2ncc(C(F)(F)F)cc2F)c(F)cc1OCCO` [Compound I-150], the values for the Ki in assay [1] (setting [3]) and in assay [2] were 0.279 nM and 0.239 nM, respectively.
Turning to `Cn1ncc(Br)c1-c1cc(Nc2ccc(C(F)(F)F)cn2)c(F)cc1OCCO` [Compound I-151], the figures for the inhibitory constant (Ki) in assay [1] (setting [3]) and in assay [2] were 0.292 nM and 0.206 nM, respectively.
For the molecule `Cn1ncc(Br)c1-c1cc(Nc2ncc(Cl)cc2F)c(F)cc1OCCO` [Compound I-152], the Ki in assay [1] (setting [3]) came out at 0.354 nM; in assay [2] it was 0.52 nM.
For the molecule `Cn1ncc(Br)c1-c1cc(Nc2ccc(Cl)cn2)c(F)cc1OCCO` [Compound I-153], the Ki was 0.286 nM in assay [1] (setting [3]) and 0.351 nM in assay [2].
Take `Cn1ncc(Br)c1-c1cc(Nc2ncc(F)cc2F)c(F)cc1OCCO` [Compound I-154]: the Ki in assay [1] (setting [3]) turned out to be 0.332 nM; in assay [2], 1.1 nM.
In the case of `Cn1ncc(Br)c1-c1cc(Nc2ncc(Cl)cc2F)ncc1OCCO` [Compound I-155], the Ki in assay [1] (setting [3]) came to 0.318 nM; in assay [2], 1.04 nM.
For the molecule `Cn1ncc(Cl)c1-c1cc(Nc2ncc(Cl)cc2F)ncc1OCCO` [Compound I-156], the inhibitory constant (Ki) amounted to 0.315 nM in assay [1] (setting [3]) and 1.78 nM in assay [2].
Turning to `Cc1cnn(C)c1-c1cc(Nc2ccc(C(F)(F)F)cn2)c(F)cc1OCCO` [Compound I-157], the inhibition constant (Ki) stood at 0.238 nM in assay [1] (setting [3]) and 2.33 nM in assay [2].
Consider `Cc1nc(C)c(-c2cc(Nc3ccc(C(F)(F)F)cn3)c(F)cc2OCCO)c(C)n1` [Compound I-158], for which the Ki in assay [1] (setting [3]) was determined as 0.907 nM; in assay [2], 3.5 nM.
The corresponding values for `Cn1ncc(Br)c1-c1cc(Nc2ncc(C(F)(F)F)cn2)ncc1OCCO` [Compound I-159] are 0.295 nM and 1.88 nM.
On to `Cn1ncc(C#N)c1-c1cc(Nc2ncc(C(F)(F)F)cc2F)ccc1OCCO` [I-031], for which the Ki in assay [1] was 0.239 nM; in assay [2], 1.6 nM.
On to `C=C(C)c1cnn(C)c1-c1cc(Nc2ncc(C(F)(F)F)cc2F)ccc1OCCO` [I-054], for which the inhibitory constant (Ki) turned out to be 0.632 nM in assay [1] and 1.03 nM in assay [2].
For `CC(C)c1cnn(C)c1-c1cc(Nc2ncc(C(F)(F)F)cc2F)ccc1OCCO` [I-056], the results for the Ki in assay [1] and in assay [2] were 1.3 nM and 1.04 nM, respectively.
In the case of `C#Cc1cnn(C)c1-c1cc(Nc2ncc(C(F)(F)F)cc2F)ccc1OCCO` [I-058], the figures for the Ki in assay [1] and in assay [2] were 0.418 nM and 0.456 nM, respectively.
`Cn1ncc(Br)c1-c1cc(Nc2nc3ccc(Cl)cc3s2)ccc1OCCO` [I-064]: the Ki in assay [1] turned out to be 0.327 nM; in assay [2] it was 0.18 nM.
The corresponding values for `Cn1cnc(C#N)c1-c1cc(Nc2ncc(C(F)(F)F)cc2F)ccc1OCCO` [I-065] are 0.15 nM and 5.02 nM.
For the molecule `Cn1ncc(Br)c1-c1cc(Nc2ncc(C(F)(F)F)cc2F)cnc1OCCO` [I-082], the figures for the inhibitory constant (Ki) in assay [1] and in assay [2] were 0.184 nM and 0.358 nM, respectively.
Regarding `Cn1ncc(C#N)c1-c1cc(Nc2ncc(C(F)(F)F)cc2F)c(F)cc1OCCO` [I-108], the Ki in assay [1] was found to be 0.478 nM; in assay [2], 6.23 nM.
